What was measured:
blackgrass = assay: Test D preemergence; assay type: in vivo, Alopecurus myosuroides; conditions: Preemergence, scale 0 to 100
In short: (§1)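 Preemergence: seeds sown in silt loam soil and sprayed with test chemical in non-phytotoxic solvent mixture with surfactant. Postemergence: plants grown in peat/vermiculite medium, sprayed at 2–18 cm (1- to 4-leaf stage). Visual rating versus untreated controls after 14–21 days, 0 (no effect) to 100 (complete control).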

chickweed [1] = assay: Test D preemergence; assay type: in vivo, Stellaria media; conditions: Preemergence, scale 0 to 100
In short: as §1

galium = assay: Test D preemergence; assay type: in vivo, Galium aparine; conditions: Preemergence, scale 0 to 100
In short: as §1

bromegrass, downy = assay: Test D preemergence; assay type: in vivo, Bromus tectorum; conditions: Preemergence, scale 0 to 100
In short: as §1

field poppy [2] = assay: Test D preemergence; assay type: in vivo, Papaver rhoeas; conditions: Preemergence, scale 0 to 100
In short: as §1

kochia [3] = assay: Test D preemergence; assay type: in vivo, Kochia scoparia; conditions: Preemergence, scale 0 to 100
In short: as §1

lambsquarters = assay: Test D preemergence; assay type: in vivo, Chenopodium album; conditions: Preemergence, scale 0 to 100
In short: as §1

oilseed rape [4] = assay: Test D preemergence; assay type: in vivo, Brassica napus; conditions: Preemergence, scale 0 to 100
In short: as §1

wheat, spring = assay: Test D preemergence; assay type: in vivo, Triticum aestivum; conditions: Preemergence, scale 0 to 100
In short: as §1

wheat, winter = assay: Test D preemergence; assay type: in vivo, Triticum aestivum; conditions: Preemergence, scale 0 to 100
In short: as §1

radish, wild = assay: Test D preemergence; assay type: in vivo, Raphanus raphanistrum; conditions: Preemergence, scale 0 to 100
In short: as §1

windgrass = assay: Test D preemergence; assay type: in vivo, Apera spica-venti; conditions: Preemergence, scale 0 to 100
In short: as §1

canarygrass = assay: Test D postemergence; assay type: in vivo, Phalaris minor; conditions: scale 0 to 100
In short: as §1

chickweed [5] = assay: Test D postemergence; assay type: in vivo, Stellaria media; conditions: scale 0 to 100
In short: as §1

field poppy [6] = assay: Test D postemergence; assay type: in vivo, Papaver rhoeas; conditions: scale 0 to 100
In short: as §1

ryegrass, Italian = assay: Test D postemergence; assay type: in vivo, Lolium multiflorum; conditions: scale 0 to 100
In short: as §1

kochia [7] = assay: Test D postemergence; assay type: in vivo, Kochia scoparia; conditions: scale 0 to 100
In short: as §1

oilseed rape [8] = assay: Test D postemergence; assay type: in vivo, Brassica napus; conditions: scale 0 to 100
In short: as §1

speedwell = assay: Test D postemergence; assay type: in vivo, Veronica persica; conditions: scale 0 to 100
In short: as §1

barley, spring = assay: Test D postemergence; assay type: in vivo, Hordeum vulgare; conditions: scale 0 to 100
In short: as §1

barley, winter = assay: Test D postemergence; assay type: in vivo, Hordeum vulgare; conditions: scale 0 to 100
In short: as §1

CCCc1cc(C(=O)NC2CC2)nn1Cc1cc(C(F)(F)F)nn1C [Compound 202]
Plant response rating, Blackgrass (blackgrass; 31 g ai/ha): 5 | Plant response rating, Blackgrass (blackgrass; 62 g ai/ha): 35 | Plant response rating, Blackgrass (blackgrass; 125 g ai/ha): 75 | Plant response rating, Blackgrass (blackgrass; 250 g ai/ha): 80 | Plant response rating, Chickweed (chickweed [1]; 31 g ai/ha): 100 | Plant response rating, Chickweed (chickweed [1]; 62 g ai/ha): 100 | Plant response rating, Chickweed (chickweed [1]; 125 g ai/ha): 100 | Plant response rating, Chickweed (chickweed [1]; 250 g ai/ha): 100 | Plant response rating, Galium (galium; 62 g ai/ha): 35 | Plant response rating, Galium (galium; 125 g ai/ha): 70 | Plant response rating, Galium (galium; 250 g ai/ha): 100 | Plant response rating, Bromegrass, Downy (bromegrass, downy; 31 g ai/ha): 25 | Plant response rating, Bromegrass, Downy (bromegrass, downy; 62 g ai/ha): 35 | Plant response rating, Bromegrass, Downy (bromegrass, downy; 125 g ai/ha): 35 | Plant response rating, Bromegrass, Downy (bromegrass, downy; 250 g ai/ha): 50 | Plant response rating, Field Poppy (field poppy [2]; 62 g ai/ha): 100 | Plant response rating, Field Poppy (field poppy [2]; 125 g ai/ha): 100 | Plant response rating, Field Poppy (field poppy [2]; 250 g ai/ha): 100 | Plant response rating, Kochia (kochia [3]; 62 g ai/ha): 100 | Plant response rating, Kochia (kochia [3]; 125 g ai/ha): 100 | Plant response rating, Kochia (kochia [3]; 250 g ai/ha): 100 | Plant response rating, Lambsquarters (lambsquarters; 62 g ai/ha): 75 | Plant response rating, Lambsquarters (lambsquarters; 125 g ai/ha): 100 | Plant response rating, Lambsquarters (lambsquarters; 250 g ai/ha): 100 | Plant response rating, Oilseed Rape (oilseed rape [4]; 62 g ai/ha): 65 | Plant response rating, Oilseed Rape (oilseed rape [4]; 125 g ai/ha): 70 | Plant response rating, Oilseed Rape (oilseed rape [4]; 250 g ai/ha): 90 | Plant response rating, Wheat, Spring (wheat, spring; 62 g ai/ha): 0 | Plant response rating, Wheat, Spring (wheat, spring; 125 g ai/ha): 10 | Plant response rating, Wheat, Spring (wheat, spring; 250 g ai/ha): 25 | Plant response rating, Wheat, Winter (wheat, winter; 62 g ai/ha): 5 | Plant response rating, Wheat, Winter (wheat, winter; 125 g ai/ha): 25 | Plant response rating, Wheat, Winter (wheat, winter; 250 g ai/ha): 60 | Plant response rating, Radish, Wild (radish, wild; 62 g ai/ha): 100 | Plant response rating, Radish, Wild (radish, wild; 125 g ai/ha): 100 | Plant response rating, Radish, Wild (radish, wild; 250 g ai/ha): 100 | Plant response rating, Windgrass (windgrass; 62 g ai/ha): 55 | Plant response rating, Windgrass (windgrass; 125 g ai/ha): 75 | Plant response rating, Windgrass (windgrass; 250 g ai/ha): 100 | Canarygrass plant response rating (canarygrass; Postemergence, 31 g ai/ha): 15 | Canarygrass plant response rating (canarygrass; Postemergence, 125 g ai/ha): 15 | Canarygrass plant response rating (canarygrass; Postemergence, 250 g ai/ha): 20 | Canarygrass plant response rating (canarygrass; postemergence, 62 g ai/ha): 15 | Chickweed plant response rating (chickweed [5]; Postemergence, 31 g ai/ha): 55 | Chickweed plant response rating (chickweed [5]; Postemergence, 125 g ai/ha): 45 | Chickweed plant response rating (chickweed [5]; Postemergence, 250 g ai/ha): 70 | Chickweed plant response rating (chickweed [5]; postemergence, 62 g ai/ha): 55 | Field Poppy plant response rating (field poppy [6]; Postemergence, 31 g ai/ha): 50 | Field Poppy plant response rating (field poppy [6]; Postemergence, 125 g ai/ha): 50 | Field Poppy plant response rating (field poppy [6]; Postemergence, 250 g ai/ha): 75 | Field Poppy plant response rating (field poppy [6]; postemergence, 62 g ai/ha): 50 | Ryegrass, Italian plant response rating (ryegrass, Italian; Postemergence, 31 g ai/ha): 10 | Ryegrass, Italian plant response rating (ryegrass, Italian; Postemergence, 125 g ai/ha): 10 | Ryegrass, Italian plant response rating (ryegrass, Italian; Postemergence, 250 g ai/ha): 15 | Ryegrass, Italian plant response rating (ryegrass, Italian; postemergence, 62 g ai/ha): 10 | Kochia plant response rating (kochia [7]; Postemergence, 31 g ai/ha): 70 | Kochia plant response rating (kochia [7]; Postemergence, 125 g ai/ha): 75 | Kochia plant response rating (kochia [7]; Postemergence, 250 g ai/ha): 85 | Kochia plant response rating (kochia [7]; postemergence, 62 g ai/ha): 70 | Oilseed Rape plant response rating (oilseed rape [8]; Postemergence, 31 g ai/ha): 40 | Oilseed Rape plant response rating (oilseed rape [8]; Postemergence, 125 g ai/ha): 50 | Oilseed Rape plant response rating (oilseed rape [8]; Postemergence, 250 g ai/ha): 60 | Oilseed Rape plant response rating (oilseed rape [8]; postemergence, 62 g ai/ha): 40 | Speedwell plant response rating (speedwell; Postemergence, 31 g ai/ha): 70 | Speedwell plant response rating (speedwell; Postemergence, 125 g ai/ha): 75 | Speedwell plant response rating (speedwell; Postemergence, 250 g ai/ha): 100 | Speedwell plant response rating (speedwell; postemergence, 62 g ai/ha): 70 | Barley, Spring plant response rating (barley, spring; Postemergence, 31 g ai/ha): 20 | Barley, Spring plant response rating (barley, spring; Postemergence, 125 g ai/ha): 25 | Barley, Spring plant response rating (barley, spring; Postemergence, 250 g ai/ha): 30 | Barley, Spring plant response rating (barley, spring; postemergence, 62 g ai/ha): 20 | Barley, Winter plant response rating (barley, winter; Postemergence, 31 g ai/ha): 15 | Barley, Winter plant response rating (barley, winter; Postemergence, 125 g ai/ha): 15 | Barley, Winter plant response rating (barley, winter; Postemergence, 250 g ai/ha): 25 | Barley, Winter plant response rating (barley, winter; postemergence, 62 g ai/ha): 15
